Data taken from ChEMBL document CHEMBL3085671, “5,6-Dihydro-5-aza-2'-deoxycytidine potentiates the anti-HIV-1 activity of ribonucleotide reductase inhibitors” (Bioorg Med Chem, 2013).
Activity calls are given as the source filed them. No cut-off for these calls is given here.

Legend:
[1] = test system: Human immunodeficiency virus 1; assay: Antiviral activity against HIV1 assessed as viral infection; format: functional, organism-based
[2] = test system: Human immunodeficiency virus 1; assay: Potentiation of resveratrol-induced antiviral activity against HIV1 infected in human U373-MAGI cells assessed as C to T mutation at 200 uM (reference value: 13%); format: functional
[3] = test system: Human immunodeficiency virus 1; assay: Potentiation of gemcitabine-induced antiviral activity against HIV1 infected in human U373-MAGI cells assessed as G to C mutation at 5 uM; format: functional
[4] = test system: Human immunodeficiency virus 1; assay: (§1) Antiviral activity against HIV1 infected in human U373-MAGI cells assessed as increase in mutant frequency at 5 to 200 uM incubated for 2 hrs prior to viral infection followed by compound washout after 24 hrs measured 72 hrs post-infection by flow cytometry; format: functional
[5] = test system: Human immunodeficiency virus 1; assay: Potentiation of gemcitabine-induced antiviral activity against HIV1 infected in human U373-MAGI cells at 5 to 50 uM incubated for 2 hrs prior to viral infection followed by compound washout after 24 hrs measured 72 hrs post-infection by flow cytometry; format: functional, organism-based
[6] = test system: Human immunodeficiency virus 1; assay: Antiviral activity against HIV1 infected in human U373-MAGI cells assessed as G to C mutation at 200 uM; format: functional
[7] = test system: Human immunodeficiency virus 1; assay: Potentiation of deferoxamine-induced antiviral activity against HIV1 infected in human U373-MAGI cells incubated for 2 hrs prior to viral infection followed by compound washout after 24 hrs measured 72 hrs post-infection by flow cytometry; format: functional, organism-based
[8] = test system: Human immunodeficiency virus 1; assay: Potentiation of resveratrol-induced antiviral activity against HIV1 infected in human U373-MAGI cells assessed as G to C mutation at 200 uM; format: functional
[9] = Cytotoxicity against human U373-MAGI cells up to 200 uM by CellTitre-Glo assay; format: cell-based
[10] = test system: Human immunodeficiency virus 1; assay: Potentiation of gemcitabine-induced antiviral activity against HIV1 infected in human U373-MAGI cells at 5 uM incubated for 2 hrs prior to viral infection followed by compound washout after 24 hrs measured 72 hrs post-infection by flow cytometry; format: functional, organism-based; conditions: Human immunodeficiency virus 1, U373-MAGI
[11] = test system: Human immunodeficiency virus 1; assay: (§2) Inhibition of gemcitabine-induced antiviral activity against HIV1 infected in human U373-MAGI cells assessed as increase in mutant frequency incubated for 2 hrs prior to viral infection followed by compound washout after 24 hrs measured 72 hrs post-infection by flow cytometry relative to gemcitabine; format: functional, organism-based
[12] = test system: Human immunodeficiency virus 1; assay: as §1, with “Potentiation of deferoxamine-induced antiviral” for “Antiviral”, “cytometry relative to control” for “cytometry”; format: functional
[13] = test system: Human immunodeficiency virus 1; assay: Potentiation of deferoxamine-induced antiviral activity against HIV1 infected in human U373-MAGI cells at 200 uM incubated for 2 hrs prior to viral infection followed by compound washout after 24 hrs measured 72 hrs post-infection by flow cytometry; format: functional, organism-based; conditions: Human immunodeficiency virus 1, U373-MAGI
[14] = test system: Human immunodeficiency virus 1; assay: Antiviral activity against HIV1 infected in human U373-MAGI cells assessed as A to G mutation at 200 uM (reference value: 22%); format: functional
[15] = test system: Human immunodeficiency virus 1; assay: Potentiation of resveratrol-induced antiviral activity against HIV1 infected in human U373-MAGI cells at 200 uM incubated for 2 hrs prior to viral infection followed by compound washout after 24 hrs measured 72 hrs post-infection by flow cytometry; format: functional, organism-based; conditions: Human immunodeficiency virus 1, U373-MAGI
[16] = test system: Human immunodeficiency virus 1; assay: Potentiation of gemcitabine-induced antiviral activity against HIV1 infected in human U373-MAGI cells assessed as induction of mutations at 200 uM (reference value: 18%); format: functional
[17] = test system: Human immunodeficiency virus 1; assay: Potentiation of gemcitabine-induced antiviral activity against HIV1 infected in human U373-MAGI cells assessed as T to C mutation at 5 uM (reference value: 18%); format: functional
[18] = test system: Human immunodeficiency virus 1; assay: as §1, with “Potentiation of resveratrol-induced antiviral” for “Antiviral”, “cytometry relative to control” for “cytometry”; format: functional
[19] = test system: Human immunodeficiency virus 1; assay: as §2, with “Potentiation of” for “Inhibition of”, “frequency at 25 uM” for “frequency”, “to control” for “to gemcitabine”; format: functional
[20] = test system: Human immunodeficiency virus 1; assay: Antiviral activity against HIV1 infected in human U373-MAGI cells assessed as G to A mutation at 200 uM (reference value: 27%); format: functional
[21] = test system: Human immunodeficiency virus 1; assay: Potentiation of gemcitabine-induced antiviral activity against HIV1 infected in human U373-MAGI cells assessed as induction of mutations at 5 uM (reference value: 18%); format: functional
[22] = test system: Human immunodeficiency virus 1; assay: Antiviral activity against HIV1 infected in human U373-MAGI cells assessed as induction of mutations at 200 uM (reference value: 18%); format: functional
[23] = test system: Human immunodeficiency virus 1; assay: Potentiation of gemcitabine-induced antiviral activity against HIV1 infected in human U373-MAGI cells assessed as C to T mutation at 5 uM (reference value: 13%); format: functional
[24] = test system: Human immunodeficiency virus 1; assay: Potentiation of resveratrol-induced antiviral activity against HIV1 infected in human U373-MAGI cells G to A mutation at 200 uM (reference value: 27%); format: functional
[25] = test system: Human immunodeficiency virus 1; assay: Antiviral activity against HIV1 infected in human U373-MAGI cells assessed as increase in mutant frequency incubated for 2 hrs prior to viral infection followed by compound washout after 24 hrs measured 72 hrs post-infection by flow cytometry; format: functional, organism-based
[26] = test system: Human immunodeficiency virus 1; assay: Potentiation of resveratrol-induced antiviral activity against HIV1 infected in human U373-MAGI cells assessed as A to G mutation at 200 uM (reference value: 22%); format: functional
[27] = test system: Human immunodeficiency virus 1; assay: Antiviral activity against HIV1 infected in human U373-MAGI cells assessed as C to T mutation at 200 uM (reference value: 13%); format: functional
[28] = test system: Human immunodeficiency virus 1; assay: Inhibition of gemcitabine-induced antiviral activity against HIV1 infected in human U373-MAGI cells at 100 to 200 uM incubated for 2 hrs prior to viral infection followed by compound washout after 24 hrs measured 72 hrs post-infection by flow cytometry; format: functional, organism-based
[29] = test system: Human immunodeficiency virus 1; assay: Potentiation of gemcitabine-induced antiviral activity against HIV1 infected in human U373-MAGI cells assessed as A to G mutation at 5 uM (reference value: 22%); format: functional
[30] = test system: Human immunodeficiency virus 1; assay: Antiviral activity against HIV1 infected in human U373-MAGI cells assessed as T to C mutation at 200 uM (reference value: 18%); format: functional
[31] = test system: Human immunodeficiency virus 1; assay: Potentiation of gemcitabine-induced antiviral activity against HIV1 infected in human U373-MAGI cells G to A mutation at 5 uM (reference value: 27%); format: functional
[32] = test system: Human immunodeficiency virus 1; assay: Potentiation of resveratrol-induced antiviral activity against HIV1 infected in human U373-MAGI cells assessed as T to C mutation at 200 uM (reference value: 18%); format: functional
[33] = test system: Human immunodeficiency virus 1; assay: Antiviral activity against HIV1 infected in human U373-MAGI cells at 5 to 200 uM incubated for 2 hrs prior to viral infection followed by compound washout after 24 hrs measured 72 hrs post-infection by flow cytometry; format: functional, organism-based
[34] = test system: Human immunodeficiency virus 1; assay: Potentiation of resveratrol-induced antiviral activity against HIV1 infected in human U373-MAGI cells incubated for 2 hrs prior to viral infection followed by compound washout after 24 hrs measured 72 hrs post-infection by flow cytometry; format: functional, organism-based
[35] = test system: Human immunodeficiency virus 1; assay: Antiviral activity against HIV1 infected in human U373-MAGI cells assessed as G to A mutation at 50 uM (reference value: 27%); format: functional
[36] = Cytotoxicity against human U373-MAGI cells by CellTitre-Glo assay; format: cell-based
[37] = test system: Human immunodeficiency virus 1; assay: Antiviral activity against HIV1 infected in human U373-MAGI cells assessed as C to T mutation at 50 uM (reference value: 13%); format: functional
[38] = test system: Human immunodeficiency virus 1; assay: Antiviral activity against HIV1 infected in human U373-MAGI cells incubated for 2 hrs prior to viral infection followed by compound washout after 24 hrs measured 72 hrs post-infection by flow cytometry; format: functional, organism-based; conditions: Human immunodeficiency virus 1, U373-MAGI
[39] = test system: Human immunodeficiency virus 1; assay: Antiviral activity against HIV1 infected in human U373-MAGI cells assessed as T to C mutation at 50 uM (reference value: 18%); format: functional
[40] = test system: Human immunodeficiency virus 1; assay: Antiviral activity against HIV1 infected in human U373-MAGI cells assessed as A to G mutation at 50 uM (reference value: 22%); format: functional
[41] = test system: Human immunodeficiency virus 1; assay: Antiviral activity against HIV1 infected in human U373-MAGI cells assessed as induction of mutations at 50 uM (reference value: 18%); format: functional
[42] = test system: Human immunodeficiency virus 1; assay: Antiviral activity against HIV1 infected in human U373-MAGI cells assessed as T to C mutation at 20 nM (reference value: 18%); format: functional
[43] = test system: Human immunodeficiency virus 1; assay: Antiviral activity against HIV1 infected in human U373-MAGI cells assessed as C to T mutation at 20 nM (reference value: 13%); format: functional
[44] = test system: Human immunodeficiency virus 1; assay: Antiviral activity against HIV1 infected in human U373-MAGI cells assessed as G to A mutation at 20 nM (reference value: 27%); format: functional
[45] = test system: Human immunodeficiency virus 1; assay: Antiviral activity against HIV1 infected in human U373-MAGI cells assessed as A to G mutation at 20 nM (reference value: 22%); format: functional
[46] = test system: Human immunodeficiency virus 1; assay: Antiviral activity against HIV1 infected in human U373-MAGI cells assessed as induction of mutations at 20 nM (reference value: 18%); format: functional
[47] = Selectivity index, ratio of CC50 for human U373-MAGI cells to EC50 for HIV1 infected in human U373-MAGI cells; format: toxicity, cell-based; conditions: read-out: Ratio CC50/EC50

`Nc1ncn([C@@H]2O[C@H](CO)[C@@H](O)[C@H]2O)c(=O)n1` [AZACITIDINE] showed an EC50 [1] of 53 µM.
In the case of `NC1=NC(=O)N([C@H]2C[C@H](O)[C@@H](CO)O2)CN1` [KP-1212], the Activity [2] is reported as 9%, the Activity [3] is reported as 11% and the “fold change (FC)” value [4] is reported as 1.6. For the same compound, the Activity [5] was “Active”, the EC50 [1] was 0.01 µM and the Activity [6] was 22%. The Activity [7] was “Dose-dependent effect”, the Activity [8] was 41% and the Activity [9] was “Non-toxic”. The EC50 [10] was 0.0216 µM, the inhibition [11] was “Active” and the “fold change (FC)” value [12] was 4.7. The EC50 [13] was 248 µM, the Activity [14] was 18% and the EC50 [15] was 52.8 µM. For the same compound, the Activity [16] was 14%, the Activity [17] was 14% and the “fold change (FC)” value [18] was 6.2. The “fold change (FC)” value [19] was 4.8, the Activity [20] was 24% and the Activity [21] was 14%. It also gave an Activity [22] of 16%, an Activity [23] of 12% and an Activity [24] of 13%. For the same compound, the Activity [25] was “Dose-dependent effect”, the Activity [26] was 13% and the Activity [27] was 10%. The inhibition [28] was “Active”, the Activity [29] was 32% and the Activity [30] was 8%. For the same compound, the Activity [31] was 18%, the Activity [32] was 10% and the Activity [33] was “Active”. For the same compound, the Activity [34] was “Dose-dependent effect”.
With `Oc1ccc(/C=C/c2cc(O)cc(O)c2)cc1` [RESVERATROL] the Activity [35] was 18%, the CC50 ([36]; U373-MAGI cells) was > 400 µM and the Activity [37] was 4%. The EC50 [38] was 99.6 µM, the Activity [25] was “Dose-dependent effect” and the Activity [39] was 16%. The Activity [40] was 38% and the Activity [41] was 22%.
For `Nc1ccn([C@@H]2O[C@H](CO)[C@@H](O)C2(F)F)c(=O)n1` [GEMCITABINE], the Activity [42] was 24%, the CC50 ([36]; u373-magi) was 62 µM and the Activity [43] was 13%. For the same compound, the Activity [44] was 13%, the Activity [45] was 24% and the Activity [25] was “Dose-dependent effect”. The Activity [46] was 24%.
For `CC(=O)N(O)CCCCCNC(=O)CCC(=O)N(O)CCCCCNC(=O)CCC(=O)N(O)CCCCCN` [DEFEROXAMINE], the CC50 ([36]; u373-magi) was > 400 µM, the EC50 [38] was 384 µM and the selectivity ratio [47] was > 1. The Activity [25] was “Dose-dependent effect”.
